# From PubChem BioAssay (NCI)
#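 Results reflect a 48-hour exposure of cells in 96-well plates to compound at five concentrations. GI50 = concentration required for 50% inhibition of growth. At the TGI there is no net growth.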
# Legend:
# Assay in all cases: DTP human tumour cell line panel, 48 h
# OVCAR-3 ovarian = tested on: OVCAR-3 ovarian
# KM20L2 colon = tested on: KM20L2 colon
# NCI-H460 lung = tested on: NCI-H460 lung
# K-562 leukemia = tested on: K-562 leukemia
# RPMI-8226 leukemia = tested on: RPMI-8226 leukemia
# SK-MEL-28 melanoma = tested on: SK-MEL-28 melanoma
# M19-MEL melanoma = tested on: M19-MEL melanoma
# SF-295 CNS = tested on: SF-295 CNS
# SW-620 colon = tested on: SW-620 colon
# A498 renal = tested on: A498 renal
# SF-539 CNS = tested on: SF-539 CNS
# CAKI-1 renal = tested on: CAKI-1 renal
# KM12 colon = tested on: KM12 colon
# UACC-62 melanoma = tested on: UACC-62 melanoma
# NCI-H522 lung = tested on: NCI-H522 lung
# COLO 205 colon = tested on: COLO 205 colon
# HOP-92 NSCLC = tested on: HOP-92 NSCLC
# OVCAR-5 ovarian = tested on: OVCAR-5 ovarian
# U251 CNS = tested on: U251 CNS
# UACC-257 melanoma = tested on: UACC-257 melanoma
# UO-31 renal = tested on: UO-31 renal
# HCT-15 colon = tested on: HCT-15 colon
# HCT-116 colon = tested on: HCT-116 colon
# SNB-19 CNS = tested on: SNB-19 CNS
# OVCAR-8 ovarian = tested on: OVCAR-8 ovarian
# RXF-631 renal = tested on: RXF-631 renal
# SK-MEL-2 melanoma = tested on: SK-MEL-2 melanoma
# SN12C renal = tested on: SN12C renal
# OVCAR-4 ovarian = tested on: OVCAR-4 ovarian
# HT29 colon = tested on: HT29 colon
# LOX IMVI melanoma = tested on: LOX IMVI melanoma
# HL-60(TB) leukemia = tested on: HL-60(TB) leukemia
# IGROV1 ovarian = tested on: IGROV1 ovarian
# HOP-62 NSCLC = tested on: HOP-62 NSCLC
# TK-10 renal = tested on: TK-10 renal
# DMS 273 small cell lung = tested on: DMS 273 small cell lung
# ACHN renal = tested on: ACHN renal
# DLD-1 colon = tested on: DLD-1 colon
# SNB-78 CNS = tested on: SNB-78 CNS
# LXFL 529 NSCLC = tested on: LXFL 529 NSCLC
# MOLT-4 leukemia = tested on: MOLT-4 leukemia
# M14 melanoma = tested on: M14 melanoma
# 786-0 renal = tested on: 786-0 renal
# MALME-3M melanoma = tested on: MALME-3M melanoma
# NCI-H23 lung = tested on: NCI-H23 lung
# EKVX NSCLC = tested on: EKVX NSCLC
# HCC-2998 colon = tested on: HCC-2998 colon
# SNB-75 CNS = tested on: SNB-75 CNS
# DMS 114 small cell lung = tested on: DMS 114 small cell lung
# CCRF-CEM leukemia = tested on: CCRF-CEM leukemia
# A549 NSCLC = tested on: A549 NSCLC
# SK-OV-3 ovarian = tested on: SK-OV-3 ovarian
# NCI-H226 lung = tested on: NCI-H226 lung
# SF-268 CNS = tested on: SF-268 CNS
# RXF 393 renal = tested on: RXF 393 renal
# SK-MEL-5 melanoma = tested on: SK-MEL-5 melanoma
# SR leukemia = tested on: SR leukemia
structure (smiles),measurement,setting,value
COc1ccc(C)cc1-c1ccc(-c2cc(C)ccc2OC)o1,TGI,OVCAR-3 ovarian,> 100 µM
same,TGI,KM20L2 colon,> 100 µM
same,TGI,NCI-H460 lung,> 100 µM
same,TGI,K-562 leukemia,> 100 µM
same,TGI,RPMI-8226 leukemia,> 100 µM
same,TGI,SK-MEL-28 melanoma,> 100 µM
same,TGI,M19-MEL melanoma,> 100 µM
same,TGI,SF-295 CNS,> 100 µM
same,TGI,SW-620 colon,> 100 µM
same,TGI,A498 renal,> 100 µM
same,TGI,SF-539 CNS,> 100 µM
same,TGI,CAKI-1 renal,> 100 µM
same,TGI,KM12 colon,> 100 µM
same,TGI,UACC-62 melanoma,> 100 µM
same,TGI,NCI-H522 lung,> 100 µM
same,TGI,COLO 205 colon,> 100 µM
same,TGI,HOP-92 NSCLC,> 100 µM
same,TGI,OVCAR-5 ovarian,> 100 µM
same,TGI,U251 CNS,> 100 µM
same,TGI,UACC-257 melanoma,> 100 µM
same,TGI,UO-31 renal,> 100 µM
same,TGI,HCT-15 colon,> 100 µM
same,TGI,HCT-116 colon,> 100 µM
same,TGI,SNB-19 CNS,> 100 µM
same,TGI,OVCAR-8 ovarian,> 100 µM
same,TGI,RXF-631 renal,> 100 µM
same,TGI,SK-MEL-2 melanoma,> 100 µM
same,TGI,SN12C renal,> 100 µM
same,TGI,OVCAR-4 ovarian,> 100 µM
same,TGI,HT29 colon,> 100 µM
same,TGI,LOX IMVI melanoma,> 100 µM
same,TGI,HL-60(TB) leukemia,> 100 µM
same,TGI,IGROV1 ovarian,> 100 µM
same,TGI,HOP-62 NSCLC,> 100 µM
same,TGI,TK-10 renal,> 100 µM
same,TGI,DMS 273 small cell lung,> 100 µM
same,TGI,ACHN renal,> 100 µM
same,TGI,DLD-1 colon,> 100 µM
same,TGI,SNB-78 CNS,> 100 µM
same,TGI,LXFL 529 NSCLC,> 100 µM
same,TGI,MOLT-4 leukemia,> 100 µM
same,TGI,M14 melanoma,> 100 µM
same,TGI,786-0 renal,> 100 µM
same,TGI,MALME-3M melanoma,> 100 µM
same,TGI,NCI-H23 lung,> 100 µM
same,TGI,EKVX NSCLC,> 100 µM
same,TGI,HCC-2998 colon,> 100 µM
same,TGI,SNB-75 CNS,> 100 µM
same,TGI,DMS 114 small cell lung,> 100 µM
same,TGI,CCRF-CEM leukemia,> 100 µM
same,TGI,A549 NSCLC,> 100 µM
same,TGI,SK-OV-3 ovarian,> 100 µM
same,TGI,NCI-H226 lung,> 100 µM
same,TGI,SF-268 CNS,> 100 µM
O=C(N/N=C/c1cc(Cl)cc(Cl)c1[O-])c1ccccc1O.O=C(N/N=C/c1cc(Cl)cc(Cl)c1[O-])c1ccccc1O.[Mn+2],TGI,OVCAR-3 ovarian,1.02 µM
same,GI50,KM20L2 colon,2.78 µM
same,TGI,K-562 leukemia,17.2 µM
same,TGI,SK-MEL-28 melanoma,12.1 µM
same,TGI,SF-295 CNS,11.8 µM
same,TGI,SW-620 colon,17.7 µM
same,GI50,SF-539 CNS,0.459 µM
same,TGI,SF-539 CNS,4.51 µM
same,TGI,RXF 393 renal,5.7 µM
same,TGI,CAKI-1 renal,4.33 µM
same,GI50,KM12 colon,0.448 µM
same,TGI,KM12 colon,15.9 µM
same,TGI,UACC-62 melanoma,0.804 µM
same,TGI,NCI-H522 lung,0.737 µM
same,GI50,HOP-92 NSCLC,0.429 µM
same,TGI,HOP-92 NSCLC,3.33 µM
same,TGI,OVCAR-5 ovarian,17.4 µM
same,TGI,U251 CNS,5.52 µM
same,TGI,UACC-257 melanoma,11.9 µM
same,TGI,UO-31 renal,11.1 µM
same,TGI,HCT-15 colon,14.1 µM
same,GI50,HCT-116 colon,0.423 µM
same,TGI,HCT-116 colon,13.8 µM
same,TGI,SNB-19 CNS,16.1 µM
same,TGI,OVCAR-8 ovarian,2.3 µM
same,GI50,SK-MEL-2 melanoma,0.285 µM
same,TGI,SK-MEL-2 melanoma,11.3 µM
same,TGI,OVCAR-4 ovarian,1.58 µM
same,TGI,SK-MEL-5 melanoma,2.63 µM
same,TGI,LOX IMVI melanoma,14.1 µM
same,TGI,HL-60(TB) leukemia,0.404 µM
same,TGI,TK-10 renal,16.2 µM
same,TGI,SR leukemia,0.832 µM
same,TGI,ACHN renal,11.9 µM
same,GI50,MOLT-4 leukemia,0.289 µM
same,TGI,MOLT-4 leukemia,14.8 µM
same,TGI,M14 melanoma,2.51 µM
same,GI50,MALME-3M melanoma,1.34 µM
same,TGI,MALME-3M melanoma,7.79 µM
same,GI50,NCI-H23 lung,0.301 µM
same,TGI,NCI-H23 lung,6.31 µM
same,GI50,EKVX NSCLC,0.861 µM
same,TGI,EKVX NSCLC,11.2 µM
same,TGI,HCC-2998 colon,13.5 µM
same,TGI,SNB-75 CNS,22.9 µM
same,GI50,A549 NSCLC,0.377 µM
same,TGI,A549 NSCLC,11.6 µM
same,TGI,SK-OV-3 ovarian,3.58 µM
same,TGI,NCI-H226 lung,6.59 µM
same,TGI,SF-268 CNS,11.5 µM
